The values below come from US20160367961A1, “METHOD AND COMPOSITION FOR PEPTIDE C[…] PROTEASE TREATMENT” (Roche Sequencing Solutions, Inc., priority 2015, published 2016).

For one test, the target named is streptavidin (Streptomyces avidinii, UniProt P22629). Kind of test: biochemical.
The next test deals with streptavidin-Cy5 (Streptomyces avidinii, UniProt P22629). As to the kind of experiment: Streptavidin-Cy5 binding to cyclic/linear peptide microarray, Cy5 fluorescence scan. The procedure:
Slides were bound with […] streptavidin-Cy5 in 30 mL binding buffer for 30 minutes at room temperature. Binding buffer contained 1% alkali soluble casein and 0.05% tween-20 in 1×TBS, pH 7.4. After 30 minutes, slides were washed twice in 1×TBS buffer for 1 minute, water for 30 seconds, and spun to dryness.
Cy5 fluorescence intensity of the arrays was measured with MS200 scanner (Roche NimbleGen) at resolution 2 um, wavelength 635 nm, gain 25% and laser intensity 100%. Cy5 signal intensities were extracted using Image Extraction Software (Roche NimbleGen). Data pre-processing, normalization and statistical tests were done in R. Data visualization and analysis were performed with Spotfire 6.5.0 (Tibco, Boston, Mass.) software platform.

The mark [1] stands for this setting: extension of HPQ-specific design JXXHPQXXJU, all J combinations (Example 12), FIG. 15.

Square brackets hold non-standard residues; d marks the D form. Peptide text beside a SMILES is read from it.

For orientation: Kd means the equilibrium constant for the complex coming apart. A high value points to a looser complex.

Chain of streptavidin-Cy5 (P22629 25-183): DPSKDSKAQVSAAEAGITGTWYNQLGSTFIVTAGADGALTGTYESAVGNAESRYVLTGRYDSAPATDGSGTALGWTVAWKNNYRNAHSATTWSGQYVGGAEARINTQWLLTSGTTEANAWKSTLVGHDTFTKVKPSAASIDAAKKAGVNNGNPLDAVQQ
Chain of streptavidin (P22629 25-183, species assumed): as the sequence (P22629 25-183) above

On streptavidin, `CC(C)C[C@@H]1NC(=O)[C@H](CCC(N)=O)NC(=O)CNC(=O)CNC(=O)[C@H](CC(N)=O)NC(=O)[C@H](CCC(N)=O)NC(=O)[C@@H]2CCCN2C(=O)[C@H](Cc2c[nH]cn2)NC(=O)[C@H](CC(=O)O)NC(=O)[C@H](Cc2ccc(O)cc2)NC1=O` [cyclic LYDHPQNGGQ, LYDHPQNGGQ] (cyclo(DHPQNGGQLY)) had a dissociation constant (Kd) of 9.4 µM. This lies in the single-digit micromolar range.
The molecule `NC(=O)CC[C@@H]1NC(=O)[C@H](Cc2c[nH]c3ccccc23)NC(=O)[C@H]2CCCN2C(=O)[C@H](CCC(N)=O)NC(=O)[C@H](CC(N)=O)NC1=O` [cyclic NQpWQ, NQpWQ] (cyclo(NQ[dP]WQ)) displayed a Kd on streptavidin of 61.3 µM.
In the case of `NC(=O)CC[C@@H]1NC(=O)CNC(=O)CNC(=O)[C@H](CC(N)=O)NC(=O)[C@H](CCC(N)=O)NC(=O)[C@@H]2CCCN2C(=O)[C@H](Cc2c[nH]cn2)NC(=O)[C@H](CC(=O)O)NC(=O)[C@H](CC(N)=O)NC(=O)[C@H](CCC(N)=O)NC1=O` [cyclic QNDHPQNGGQ, QNDHPQNGGQ] (cyclo(DHPQNGGQQN)), binding on streptavidin was characterised by a dissociation constant (Kd) of 10.8 µM.
Consider `NC(=O)CC[C@H](NC(=O)[C@H](Cc1c[nH]c2ccccc12)NC(=O)[C@H]1CCCN1C(=O)[C@H](CCC(N)=O)NC(=O)[C@@H](N)CC(N)=O)C(=O)O` [linear NH2-NQpWQ-COOH, NH2-NQpWQ-COOH] (H-NQ[dP]WQ-OH), for which, at streptavidin, the Kd is above 2000 µM.
For the molecule “H-LYDHPQNGGQ-OH [linear NH2-LYDHPQNGGQ-COOH, NH2-LYDHPQNGGQ-COOH]”, the affinity at streptavidin, expressed as Kd, was 100 µM.
On the same count and under the same terms, to “H-QNDHPQNGGQ-OH [linear NH2-QNDHPQNGGQ-COOH, NH2-QNDHPQNGGQ-COOH]” belongs 320 µM.
As for “LYDHPQNGGU (cyclo(LYDHPQNGGE); also: position 10: U in name, array-bound via glutamate side chain) [cylic LYDHPQNGGU, U = glutamate attached to the surface through its side chain]”, the cyclic fluorescent intensity result in the test with streptavidin-Cy5 (setting [1]) was “highest cyclic intensity”.
For “NQpWU (cyclo(NQ[dP]WE); also: position 5: U in name, array-bound via glutamate side chain) [cylic NQpWU, U = glutamate attached to the surface through its side chain, p = D-proline]”, the cyclic fluorescent intensity result in the test with streptavidin-Cy5 (peptide library of the format XXXXU (Example 9), cyclic subarray, FIG. 10) is listed as “highest cyclic fluorescent intensity”.
In the case of “QNDHPQNGGU (cyclo(QNDHPQNGGE); also: position 10: U in name, array-bound via glutamate side chain) [cyclic QNDHPQNGGU, U = glutamate attached to the surface through its side chain]”, the “log fold change (logFC) between cyclic and linear fluorescent intensity” value in the test with streptavidin-Cy5 (extension of HPQ-specific design JXXHPQXXJU (Example 12), FIG. 15, positive logFC = preference for cyclic peptide) is “high logFC”. Further, the cyclic fluorescent intensity result with streptavidin-Cy5 (setting [1]) is given as “high cyclic intensitiy”.
